Experimental data published in patent publication US9435792B2, “Hemolysis reagent composition for hemoglobin A1C quantitative analysis using enzymatic method” (I-Sens, Inc., priority 2012, dated 2016).

Assay: Evaluation of solubility of surfactant
Type: physicochemical
Conditions: surfactant dissolved in distilled water to a concentration of 0.75 mg/mL
Procedure: In order to use a surfactant, it is essential that the solubility of a sample itself be excellent. First of all, if the sample is not dissolved it cannot be used at all, and thus the solubility of a surfactant was evaluated as a prerequisite.

CCCCCCCCCCCCCC(=O)NCCC[N+](C)(C)CCCS(=O)(=O)[O-] [Comp. Ex. 1]
Solubility: ∘ (dissolved at a concentration of 0.75 mg/mL)
